Laboratory results: patent US10231980B2, “Cortexolone 17alpha-benzoate for use in the treatment of tumours” (COSMO TECHNOLOGIES LTD., priority 2014, dated 2019)
Like-named read-outs stand apart in the source and are kept apart here.

What was measured:
Panc1 (AR+) = assay: ATP-dependent proliferation assay with 10 nM DHT, pancreatic cancer cells (Examples 3, 4, 7); conditions: for TI on Resting PBMC: IC50 resting PBMC / IC50 Panc1; for TI on Stimulated PBMC: IC50 stimulated PBMC / IC50 Panc1
Protocol: (§1) The experimental method consisted of: • 1. […] After 24 hrs, 10 nM DHT (dihydrotestosterone) with or without anti-androgen compounds, or DMSO vehicle (negative control) was added to the cultures. • 3.
(§2) Data from Experiment 1 were fitted through sigmoidal dose response curves and analyzed using Prizm statistical analysis software. […] The results from 2 sets of experiments follow.
(§3) Data from Experiment 1 was fitted through sigmoidal dose response curves and analyzed using Prizm statistical analysis software.

MiaPaca2 (AR low) = assay: as above; conditions: for TI on Resting PBMC: IC50 resting PBMC / IC50 MiaPaca2; for TI on Stimulated PBMC: IC50 stimulated PBMC / IC50 MiaPaca2
Protocol: as §1, §2, §3

HT29 = assay: MTT colorimetric assay on epithelial intestinal cancer cells; assay type: cell-based; conditions: for Therapeutic Index = IC50 stimulated PBMC/IC50 cancer cell: Table VII; for Therapeutic Index (TI), Resting PBMC: IC50 resting PBMC / IC50 HT29; for Therapeutic Index (TI), Stimulated PBMC: IC50 stimulated PBMC / IC50 HT29
Protocol: The experiment was performed to test and define anticancer activity in vitro of Cortexolone 17α-benzoate and cortexolone 17α-valerate, 21-propionate on cell lines representatives of epithelial intestinal tumours, namely HT29. The experiment method consisted in: • 1. Monolayer HT-29 cells were plated in: 96-wells plates at the density of 2×10^4 cells/mL. The cells plated were kept at 37° C. in 5% CO2 and left to attach for 24 h. • 2. […] After 72 h of treatment, the MTT colorimetric assay was performed.

BxPC3 = assay: In vitro proliferation, larger panel (Example 14); conditions: for Therapeutic Index = IC50 stimulated PBMC/IC50 cancer cell: Table VII
Description: (§4) Data shown in Table I were fitted through sigmoidal dose response curves and analyzed using Prizm statistical.

stimulated PBMC [1] = assay: IC50 on stimulated (actively dividing) PBMC; assay type: cell-based, human; conditions: PBMC Stim; Table IV
LNCaP (AR+) = assay: ATP-dependent proliferation assay with 10 nM DHT, prostate cancer cells (Examples 1, 2); assay type: cell-based, human
Protocol: (§5) The experiment was performed to test and to define the antitumor activity in vitro of cortexolone 17α-benzoate on LNCaP (AR^+) and PC3 (AR^−), representative of Prostatic cancer cell lines with Androgen receptor positive or negative expression, respectively. The experimental method consisted of: • 1. […] After 24 hrs, 10 nM DHT (dihydrotestosterone) with or without anti-androgen compounds, or DMSO vehicle (negative control) was added to the cultures. • 3.
(§6) Data from Experiment 1 was fitted through sigmoidal dose response curves and analyzed using Prizm statistical analysis software. […] The results from 2 sets of experiments follow.
(§7) The experiment was performed to test and to define antitumor activity in vitro of cortexolone 17α-valerate-21-propionate on LNCaP (AR^+) and PC3 (AR^−), representative of Prostatic cancer cell lines with Androgen receptor positive or negative expression, respectively. The experimental method consisted of: • 1. […] After 24 hours, 10 nM DHT (dihydrotestosterone) with or without anti-androgen compounds, or DMSO vehicle (negative control) was added to the cultures. • 3.

PC3 (AR−) = assay: as above; assay type: cell-based, human
Protocol: as §5, §6, §7

resting PBMC = assay: IC50 on resting (quiescent) PBMC; assay type: cell-based, human
Protocol: The IC50 in PBMCs were tested in 2 different activation status: • stimulated—actively dividing cells • resting—quiescent, non-dividing cells
The IC50 in PBMCs were tested in 2 different activation status: • Stimulated—actively dividing cells • Resting—quiescent, non-dividing cells.
IC50 of the compounds was determined on fresh cells isolated from human blood (PBMC).

stimulated PBMC [2] = assay: IC50 on stimulated (actively dividing) PBMC; assay type: cell-based, human
Protocol: The compound toxicity was determined as follow:
Therapeutic Index=Safety/Potency=IC50 stimulated PBMC/IC50 cancer cell

MCF7 = assay: In vitro proliferation / cytotoxic assay on breast cancer cells (Examples 14, 25); conditions: for Therapeutic Index = IC50 stimulated PBMC/IC50 cancer cell: Table VII
Protocol: as §4
For the cytotoxic assay, cells were seeded in 96-well flat bottom culture plates in media containing charcoal stripped serum. After 24 hours, test compounds were added to the cells. DMSO was used as the vehicle negative control and RU486 as the positive control. After 72 hour incubation, cells were harvested and lysed to determine cell viability using the Cell Titer Glow assay.

[3] = Experiment 1, 0 = higher toxicity in PBMC
[4] = Homo sapiens, HT-29, 72 h, read-out: Inhibition (%) on HT29

CCCCC(=O)O[C@]1(C(=O)COC(=O)CC)CC[C@H]2[C@@H]3CCC4=CC(=O)CC[C@]4(C)[C@H]3CC[C@@]21C [CB-03-10, cortexolone 17α-valerate-21-propionate]
TI on Resting PBMC (Panc1 (AR+); [3]): 2 | TI on Resting PBMC (Panc1 (AR+); Experiment 2): 2 | TI on Stimulated PBMC (Panc1 (AR+); [3]): 2 | TI on Stimulated PBMC (Panc1 (AR+); Experiment 2): 2 | IC50 (Panc1 (AR+); Panc1, Example 7, Experiment 1): 68 µM | IC50 (Panc1 (AR+); Panc1, Example 7, Experiment 2): 60 µM | IC50 (Panc1 (AR+); Panc1, Experiment 1, sigmoidal dose response fit, 10 nM DHT, 3 days): 66 µM | IC50 (Panc1 (AR+); Panc1, Experiment 2, nonlinear regression least squares fit, additional experiments): 60 µM | TI on Resting PBMC (MiaPaca2 (AR low); [3]): 3 | TI on Resting PBMC (MiaPaca2 (AR low); Experiment 2): 3 | TI on Stimulated PBMC (MiaPaca2 (AR low); [3]): 3 | TI on Stimulated PBMC (MiaPaca2 (AR low); Experiment 2): 3 | IC50 (MiaPaca2 (AR low); MiaPaca2, Example 7, Experiment 1): 34 µM | IC50 (MiaPaca2 (AR low); MiaPaca2, Example 7, Experiment 2): 37 µM | IC50 (MiaPaca2 (AR low); MiaPaca2, Experiment 1, sigmoidal dose response fit, 10 nM DHT, 3 days): 43 µM | IC50 (MiaPaca2 (AR low); MiaPaca2, Experiment 2, nonlinear regression least squares fit, additional experiments): 37 µM | Inhibition (%) on HT29 (HT29; 0.8 micromolar, 72 h): 0.44% | Inhibition (%) on HT29 (HT29; 4 micromolar, 72 h): 14.23% | Inhibition (%) on HT29 (HT29; 20 micromolar, 72 h): 25.49% | Inhibition (%) on HT29 (HT29; 100 micromolar, 72 h): 89.77% | Inhibition (%) on HT29 (HT29; 500 micromolar, 72 h): 92.10% | IC50 (HT29; HT29, MTT, 72 h, read-out: IC50 Calculated): 34.2 µM | Therapeutic Index = IC50 resting PBMC/IC50 cancer cell (HT29; HT29, Table IV): 3 | IC50 (HT29; HT29, Table IV, read-out: In vitro proliferation IC50): 34 µM | Therapeutic Index = IC50 stimulated PBMC/IC50 cancer cell (HT29; HT29): 3 | Therapeutic Index (TI), Resting PBMC (HT29; Experiment 1): 3 | Therapeutic Index (TI), Resting PBMC (HT29; Experiment 2): 4 | Therapeutic Index (TI), Stimulated PBMC (HT29; Experiment 1): 3 | Therapeutic Index (TI), Stimulated PBMC (HT29; Experiment 2): 3 | Therapeutic Index = IC50 resting PBMC/IC50 cancer cell (BxPC3; BxPC3, Table IV): 3 | Therapeutic Index = IC50 stimulated PBMC/IC50 cancer cell (BxPC3; BxPC3): 3 | IC50 (BxPC3; read-out: In vitro proliferation IC50, BxPC3, Table IV): 30 µM | Therapeutic Index = IC50 resting PBMC/IC50 cancer cell (stimulated PBMC [1]): 1 | IC50 (LNCaP (AR+); LNCaP, Experiment 1, sigmoidal dose response fit, 10 nM DHT, 3 days, read-out: IC50): 13 µM | IC50 (LNCaP (AR+); LNCaP, Experiment 2, nonlinear regression least squares fit, additional experiments, read-out: IC50): 10 µM | IC50 (PC3 (AR−); PC3, Experiment 1, sigmoidal dose response fit, 10 nM DHT, 3 days, read-out: IC50): 55 µM | IC50 (PC3 (AR−); PC3, Experiment 2, nonlinear regression least squares fit, additional experiments, read-out: IC50): 50 µM | IC50 (resting PBMC; Example 7, Experiment 1, read-out: IC50 on Resting PBMC): 114 µM | IC50 (resting PBMC; Example 7, Experiment 2, read-out: IC50 on Resting PBMC): 120 µM | IC50 (stimulated PBMC [2]; Example 7, Experiment 1, read-out: IC50 on Stimulated PBMC): 106 µM | IC50 (stimulated PBMC [2]; Example 7, Experiment 2, read-out: IC50 on Stimulated PBMC): 94 µM | IC50 (stimulated PBMC [2]; PBMC STIMULATED, Table IV, read-out: In vitro proliferation IC50): 94 µM | Therapeutic Index = IC50 resting PBMC/IC50 cancer cell (MCF7; MCF7, Table IV): 3 | Therapeutic Index = IC50 stimulated PBMC/IC50 cancer cell (MCF7; MCF7): 3 | IC50 (MCF7; read-out: In vitro proliferation IC50, MCF7, Table IV): 28 µM

C[C@]12CCC(=O)C=C1CC[C@@H]1[C@@H]2CC[C@@]2(C)[C@H]1CC[C@]2(OC(=O)c1ccccc1)C(=O)CO [CB-03-06, cortexolone 17α-benzoate]
IC50 (Panc1 (AR+); Homo sapiens, PANC-1, 72 h, Panc1, Experiment 1, sigmoidal dose response fit, 10 nM DHT, 3 days): 30 µM | IC50 (Panc1 (AR+); Homo sapiens, PANC-1, Panc1, Example 7, Experiment 1): 23 µM | IC50 (Panc1 (AR+); Homo sapiens, PANC-1, Panc1, Example 7, Experiment 2): 28 µM | IC50 (Panc1 (AR+); Homo sapiens, PANC-1, Panc1, Experiment 2, nonlinear regression least squares fit, additional experiments): 28 µM | TI on Resting PBMC (Panc1 (AR+); [3]): 4 | TI on Resting PBMC (Panc1 (AR+); Experiment 2): 3 | TI on Stimulated PBMC (Panc1 (AR+); [3]): 5 | TI on Stimulated PBMC (Panc1 (AR+); Experiment 2): 3 | IC50 (MiaPaca2 (AR low); Homo sapiens, MIA PaCa-2, 72 h, MiaPaca2, Experiment 1, sigmoidal dose response fit, 10 nM DHT, 3 days): 23 µM | IC50 (MiaPaca2 (AR low); Homo sapiens, MIA PaCa-2, MiaPaca2, Example 7, Experiment 1): 17 µM | IC50 (MiaPaca2 (AR low); Homo sapiens, MIA PaCa-2, MiaPaca2, Example 7, Experiment 2): 20 µM | IC50 (MiaPaca2 (AR low); Homo sapiens, MIA PaCa-2, MiaPaca2, Experiment 2, nonlinear regression least squares fit, additional experiments): 20 µM | TI on Resting PBMC (MiaPaca2 (AR low); [3]): 6 | TI on Resting PBMC (MiaPaca2 (AR low); Experiment 2): 4 | TI on Stimulated PBMC (MiaPaca2 (AR low); [3]): 7 | TI on Stimulated PBMC (MiaPaca2 (AR low); Experiment 2): 5 | Therapeutic Index = IC50 resting PBMC/IC50 cancer cell (HT29; HT29, Table IV): 6 | Therapeutic Index = IC50 stimulated PBMC/IC50 cancer cell (HT29; HT29): 6 | IC50 (HT29; Homo sapiens, HT-29, 72 h, read-out: IC50 Calculated): 16 µM | inhibition at 0.8 µM (HT29; [4]): -1.55% | inhibition at 4 µM (HT29; [4]): 20.4% | inhibition at 20 µM (HT29; [4]): 53.6% | inhibition at 100 µM (HT29; [4]): 92.2% | inhibition at 500 µM (HT29; [4]): 92.3% | IC50 (HT29; Homo sapiens, HT-29, read-out: In vitro proliferation IC50): 16 µM | IC50 (HT29; Homo sapiens, HT-29, read-out: in vitro proliferation IC50): 13 µM | Therapeutic Index (TI), Resting PBMC (HT29; Experiment 1): 6 | Therapeutic Index (TI), Resting PBMC (HT29; Experiment 2): 5 | Therapeutic Index (TI), Stimulated PBMC (HT29; Experiment 1): 7 | Therapeutic Index (TI), Stimulated PBMC (HT29; Experiment 2): 6 | Therapeutic Index = IC50 resting PBMC/IC50 cancer cell (BxPC3; BxPC3, Table IV): 3 | Therapeutic Index = IC50 stimulated PBMC/IC50 cancer cell (BxPC3; BxPC3): 3 | IC50 (BxPC3; Homo sapiens, BXPC-3, read-out: In vitro proliferation IC50): 28 µM | IC50 (BxPC3; Homo sapiens, BXPC-3, read-out: in vitro proliferation IC50): 28 µM | Therapeutic Index = IC50 resting PBMC/IC50 cancer cell (stimulated PBMC [1]): 1 | IC50 (LNCaP (AR+); Homo sapiens, LNCaP/AR): 12 µM | IC50 (LNCaP (AR+); Homo sapiens, LNCaP/AR, 72 h): 12 µM | IC50 (PC3 (AR−); Homo sapiens, PC3/AR): 28 µM | IC50 (PC3 (AR−); Homo sapiens, PC3/AR, 72 h): 29 µM | IC50 (resting PBMC; Homo sapiens, PBMC, read-out: IC50 on Resting PBMC, Example 7, Experiment 1): 100 µM | IC50 (resting PBMC; Homo sapiens, PBMC, read-out: IC50 on Resting PBMC, Example 7, Experiment 2): 85 µM | IC50 (resting PBMC; Homo sapiens, PBMC, read-out: in vitro proliferation IC50, PBMC RESTING, Table III): 85 µM | IC50 (stimulated PBMC [2]; Homo sapiens, PBMC, read-out: IC50 on Stimulated PBMC, Example 7, Experiment 1): 113 µM | IC50 (stimulated PBMC [2]; Homo sapiens, PBMC, read-out: IC50 on Stimulated PBMC, Example 7, Experiment 2): 97 µM | IC50 (stimulated PBMC [2]; Homo sapiens, PBMC, read-out: In vitro proliferation IC50, PBMC STIMULATED, Table IV): 97 µM | IC50 (stimulated PBMC [2]; Homo sapiens, PBMC, read-out: in vitro proliferation IC50, PBMC STIMULATED, Table III): 97 µM | IC50 (MCF7; Homo sapiens, MCF7, 72 h): 25 µM | IC50 (MCF7; Homo sapiens, MCF7, read-out: In vitro proliferation IC50): 25 µM | IC50 (MCF7; Homo sapiens, MCF7, read-out: in vitro proliferation IC50): 25 µM | Therapeutic Index = IC50 resting PBMC/IC50 cancer cell (MCF7; MCF7, Table IV): 4 | Therapeutic Index = IC50 stimulated PBMC/IC50 cancer cell (MCF7; MCF7): 4
